Legend:
Format in all cases: physicochemical
[1] = Dynamic Vapor Sorption (DVS), step isothermal study; conditions: 25° C.; for release of adsorbed water in the desorption stage: 95% to 5% RH; for moisture picked up at 95% relative humidity (RH): adsorption 5% to 95% RH; for weight gain from 5% to 95% relative humidity: step isothermic study (DVS)
Experimental: (§1) Dynamic Vapor Sorption (DVS): A step isothermal study (25° C.) was conducted on a representative sample of form IA using a VTI SGA 100 Symmetric Vapor Sorption Analyzer. An aliquot of approximately 10 mg was weighed in an open platinum dish and exposed to different levels of humidity at 25° C. Relative humidity (RH) steps were from 5% to 95% (adsorption) and from 95% to 5% in increments of 5% RH (desorption). The equilibration criterion was 0.0100 wt % change in 5 min, with a max equilibration time of 180 min. The sample picked up ˜8 wt % moisture at 95% relative humidity (RH).
as §1, with “a” for “a representative”, “form IIA” for “form IA”, “The material” for “The sample”, “up ˜11” for “up ˜8”
as §1, with “a” for “a representative”, “form IIC” for “form IA”, “The material” for “The sample”, “up ˜4” for “up ˜8”
Water Vapor Sorption analysis: Vapor Sorption analysis of a sample of form IIIB was done using a SGA-100 Vapor Sorption Analyzer (VTI, Hialeah, Fla.). A sample with weight of approximately 7-12 mg was measured isothermally at 25° C. Data was collected by Isotherm software and analyzed by Microsoft Excel with a VTI macro (VTI, Hialeah, Fla.). The sample gained about 4.6% in weight from 5 to 95% RH (25° C.).

[2] = Solubility in various media (equilibration on a shaking bed for 24 hours, HPLC); conditions: for Solubility, Actual Conc / Solubility in 0.05M Buffers, Actual Conc: 24 h equilibration; for Solubility, Total Conc: ambient, 24 h
Experimental: (§2) Solubility: The solubility of form IA in various media was determined at ambient conditions by equilibrating aliquots of the drug powder with the solvents on a shaking bed for 24 hours. The samples were centrifuged, the saturated solutions of the drug were then separated and analyzed by HPLC. The sample volume was 100 μL and the target concentration was 10 mg/mL. The saturated solutions were diluted appropriately and analyzed by HPLC.
Solubility: Solubility of form IIC in various media was determined at ambient conditions by equilibrating aliquots of the drug powder with the solvents on a shaking bed for 24 hours. Samples were spun and the supernatant was carefully separated and analyzed by HPLC at the 24-hour timepoint using a stability-indicating method. […] Some variability may occur between lots of a particular sample.
as §2, with “Solubility” for “The solubility”, “IIIB” for “IA”, “medium” for “solvents”, “μL,” for “μL”, “mg/ml.” for “mg/mL.”

[3] = Stability analysis (chemical stability by HPLC, physical stability by XRPD); conditions: for chemically and physically stable for at least about / chemically and physically stable for at least about (e.g. value): various storage conditions, including 40° C./75% RH (e.g., open container)
From the text: In some embodiments, less than 25% of the form of Compound 1 decomposes, in some embodiments, less than about 20%, less than about 15%, less than about 10%, less than about 5%, less than about 3%, less than about 1%, less than about 0.5% of the form of Compound 1 decomposes under the conditions specified. In some embodiments, no detectable amount of the form of Compound 1 decomposes.
In some embodiments, less than 25% of the form of Compound 1 changes into one or more different physical forms when subjected to specified conditions, In some embodiments, less than about 20%, less than about 15%, less than about 10%, less than about 5%, less than about 3%, less than about 1%, less than about 0.5% of the form of Compound 1 changes into one or more different physical forms of Compound 1 when subjected to specified conditions. In some embodiments, no detectable amount of the form of Compound 1 changes into one or more different physical forms of Compound 1.

[4] = aqueous solution, pH of about 1.6

CCNC(=O)Nc1nc2cc(-c3cncc(F)c3)cc(-c3ncccn3)c2[nH]1.CCS(=O)(=O)O [Form IIA, 1-ethyl-3-(5-(5-fluoropyridin-3-yl)-7-(pyrimidin-2-yl)-1H-benzo[d]imidazol-2-yl)urea•monoesylate]
release of adsorbed water in the desorption stage ([1]; DVS): Not all of the adsorbed water was released
moisture picked up at 95% relative humidity (RH) ([1]; DVS): ~11 wt %
weight gain from 5% to 95% relative humidity [1]: about 10%
solubility [2, 4]: > 150 mg/mL
change of solid form on storage ([3]; 40° C./75% RH for about 24 hours or for about 2 weeks): converted to form IIB

CCNC(=O)Nc1nc2cc(-c3cncc(F)c3)cc(-c3ncccn3)c2[nH]1.CCS(=O)(=O)O [Form IIB, 1-ethyl-3-(5-(5-fluoropyridin-3-yl)-7-(pyrimidin-2-yl)-1H-benzo[d]imidazol-2-yl)urea•monoesylate]
solubility [2, 4]: > 150 mg/mL

CCNC(=O)Nc1nc2cc(-c3cncc(F)c3)cc(-c3ncccn3)c2[nH]1.CCS(=O)(=O)O [Form IIC, 1-ethyl-3-(5-(5-fluoropyridin-3-yl)-7-(pyrimidin-2-yl)-1H-benzo[d]imidazol-2-yl)urea•monoesylate]
hydrate formation ([1]; DVS, 5% to 95% RH): did not form a hydrate
release of adsorbed water in the desorption stage ([1]; DVS): All adsorbed water was released
moisture picked up at 95% relative humidity (RH) ([1]; DVS): ~4 wt %
Solubility, Actual Conc ([2]; 0.1N HCl, pH 1.10, target 100 mg/ml): 105 mg/mL
Solubility, Actual Conc ([2]; 0.5% Methylcellulose (MC)/0.5% Sodium Lauryl Sulfate (SLS), pH 1.58, target 100 mg/ml): 94.8 mg/mL
Solubility, Actual Conc ([2]; 0.9% Sodium Chloride, target 100 mg/ml): 33.6 mg/mL
Solubility, Actual Conc ([2]; 1% Deoxycholic sodium salt (DOSS), pH 1.71, target 150 mg/ml): 125 mg/mL
Solubility, Actual Conc ([2]; 1% Docusate, pH 1.58, target 150 mg/ml): 159 mg/mL
Solubility, Actual Conc ([2]; 1% Pluronic F68, pH 1.57, target 150 mg/ml): 155 mg/mL
Solubility, Actual Conc ([2]; 1% Pluronic F108, pH 1.58, target 150 mg/ml): 159 mg/mL
Solubility, Actual Conc ([2]; 1% SLS, pH 1.56, target 150 mg/ml): 126 mg/mL
Solubility, Actual Conc ([2]; 1% Tween 80, pH 1.60, target 150 mg/ml): 130 mg/mL
Solubility, Actual Conc ([2]; 4% Glycerol, pH 1.59, target 150 mg/ml): 162 mg/mL
Solubility, Actual Conc ([2]; 10% Cremophor, pH 1.64, target 150 mg/ml): 137 mg/mL
Solubility, Actual Conc ([2]; 10% Polyvinyl pyrrolidone (PVP) K30, pH 1.70, target 150 mg/ml): 152 mg/mL
Solubility, Actual Conc ([2]; 10% Solutol, pH 1.61, target 150 mg/ml): 170 mg/mL
Solubility, Actual Conc ([2]; 10% Tween 80, pH 1.64, target 150 mg/ml): 144 mg/mL
Solubility, Actual Conc ([2]; 10% Vitamin E TPGS, pH 1.58, target 150 mg/ml): 138 mg/mL
Solubility in 0.05M Buffers, Actual Conc ([2]; Potassium chloride hydrochloric acid, pH 1, experimental pH 1.01): 113 mg/mL
Solubility in 0.05M Buffers, Actual Conc ([2]; Potassium phosphate monobasic-sodium hydroxide, pH 7): 48.2 mg/mL
Solubility in 0.05M Buffers, Actual Conc ([2]; Potassium phosphate monobasic-sodium hydroxide, pH 9, experimental pH 1.75): 67.0 mg/mL
Solubility, Actual Conc ([2]; Tetraglucol:Water (1:1), pH 2.08, target 50 mg/ml): 29.6 mg/mL
Solubility, Actual Conc ([2]; Water, pH 1.60, target 150 mg/ml): 152 mg/mL
solubility [2, 4]: > 150 mg/mL
Solubility, Actual Conc ([2]; pH 7 Tris Buffer, target 100 mg/ml): 30.0 mg/mL
chemically and physically stable for at least about [3]: at least 2 weeks
chemically and physically stable for at least about (e.g. value) [3]: at least 6 months

CCNC(=O)Nc1nc2cc(-c3cncc(F)c3)cc(-c3ncccn3)c2[nH]1.CCS(=O)(=O)O [Form IID, 1-ethyl-3-(5-(5-fluoropyridin-3-yl)-7-(pyrimidin-2-yl)-1H-benzo[d]imidazol-2-yl)urea•monoesylate]
solubility [2, 4]: > 150 mg/mL

CCNC(=O)Nc1nc2cc(-c3cncc(F)c3)cc(-c3ncccn3)c2[nH]1.CS(=O)(=O)O [Form IIIB, 1-ethyl-3-(5-(5-fluoropyridin-3-yl)-7-(pyrimidin-2-yl)-1H-benzo[d]imidazol-2-yl)urea•monomesylate]
weight gain from 5% to 95% relative humidity [1]: about 4.6%
Solubility, Total Conc ([2]; Captisol, 20%): 3.81 mg/mL
Solubility, Total Conc ([2]; Captisol, 30%, pH 7): 0.634 mg/mL
Solubility, Total Conc ([2]; Ethanol): 0.439 mg/mL
Solubility, Total Conc ([2]; HCl, 0.1N): 12.2 mg/mL
Solubility, Total Conc ([2]; Miglyol810): 0.0219 mg/mL
Solubility, Total Conc ([2]; Octanol): 0.0584 mg/mL
Solubility, Total Conc ([2]; PEG400): 0.729 mg/mL
Solubility, Total Conc ([2]; PluronicF108, 1%): >12.0 mg/mL
Solubility, Total Conc ([2]; PropyleneGlycol): 5.74 mg/mL
Solubility, Total Conc ([2]; SGF): >12.0 mg/mL
Solubility, Total Conc ([2]; SIF): 0.0284 mg/mL
Solubility, Total Conc ([2]; SodiumLaurylSulfate, 1%): 0.623 mg/mL
Solubility, Total Conc ([2]; TrisBuffer, pH 7): 0.0276 mg/mL
Solubility, Total Conc ([2]; Vitamin E TPGS, 10%, 1% HPMC): >12.0 mg/mL
Solubility, Total Conc ([2]; Vitamin E TPGS, 10%): 11.5 mg/mL
Solubility, Total Conc ([2]; Water): >12.0 mg/mL
solubility ([2]; at pH of about 4.4): > 12 mg/mL
solubility ([2]; in simulated gastric fluid (SGF)): > 12 mg/mL
chemically and physically stable for at least about [3]: at least 2 weeks
chemically and physically stable for at least about (e.g. value) [3]: at least 1 months

CCNC(=O)Nc1nc2cc(-c3cncc(F)c3)cc(-c3ncccn3)c2[nH]1.CS(=O)(=O)O [crystalline1-ethyl-3-(5-(5-fluoropyridin-3-yl)-7-(pyrimidin-] [1-ethyl-3-(5-(5-fluoropyridin-3-yl)-7-(pyrimidin-2-yl)-1H-benzo[d]imidazol-2-yl)urea.monomesylate]
weight gain from 5% to 95% relative humidity [1]: 4.6%
solubility ([2]; at pH of about 4.4): greater than 12 mg/ml
remains chemically stable for at least ([3]; 40° C./75% relative humidity): at least 1 months
remains in substantially the same physical form for at least ([3]; 40° C./75% relative humidity): at least 1 months

CCNC(=O)Nc1nc2cc(-c3cncc(F)c3)cc(-c3ncccn3)c2[nH]1.CCS(=O)(=O)O [crystalline 1-ethyl-3-(5-(5-fluoropyridin-3-yl)-7-(pyrimidin] [1-ethyl-3-(5-(5-fluoropyridin-3-yl)-7-(pyrimidin-2-yl)-1H-benzo[d]imidazol-2-yl)urea.monoesylate]
solubility [2, 4]: greater than 150 mg/ml
remains chemically stable for at least about ([3]; 40° C./75% relative humidity): at least 2 weeks
remains in substantially the same physical form for at least ([3]; 40° C./75% relative humidity): at least 6 months
remains in substantially the same physical form for at least about ([3]; 40° C./75% relative humidity): at least 2 weeks
